Measured values: ChEMBL document CHEMBL3853357, “Discovery of a Series of 5,11-Dihydro-6H-benzo[e]pyrimido[5,4-b][1,4]diazepin-6-ones as Selective PI3K-δ/γ Inhibitors” (ACS Med Chem Lett, 2016)
Activity calls are given as the source filed them. The calls are words filed in the database; no cut-off is given here.

Legend:
[1] = target: Phosphatidylinositol 4,5-bisphosphate 3-kinase catalytic subunit gamma isoform (Homo sapiens, UniProt P48736); test: Inhibition of human PI3Kgamma (S144 to A1102 residues) expressed in mammalian expression system incubated for 60 mins by ADAPTA assay
[2] = target: T1, Phosphatidylinositol 4,5-bisphosphate 3-kinase catalytic subunit delta isoform (Homo sapiens, UniProt O00329); test: Inhibition of human PI3Kdelta (R108 to Q1044 residues) expressed in mammalian expression system incubated for 60 mins by ADAPTA assay
T1 sequence (O00329 whole entry): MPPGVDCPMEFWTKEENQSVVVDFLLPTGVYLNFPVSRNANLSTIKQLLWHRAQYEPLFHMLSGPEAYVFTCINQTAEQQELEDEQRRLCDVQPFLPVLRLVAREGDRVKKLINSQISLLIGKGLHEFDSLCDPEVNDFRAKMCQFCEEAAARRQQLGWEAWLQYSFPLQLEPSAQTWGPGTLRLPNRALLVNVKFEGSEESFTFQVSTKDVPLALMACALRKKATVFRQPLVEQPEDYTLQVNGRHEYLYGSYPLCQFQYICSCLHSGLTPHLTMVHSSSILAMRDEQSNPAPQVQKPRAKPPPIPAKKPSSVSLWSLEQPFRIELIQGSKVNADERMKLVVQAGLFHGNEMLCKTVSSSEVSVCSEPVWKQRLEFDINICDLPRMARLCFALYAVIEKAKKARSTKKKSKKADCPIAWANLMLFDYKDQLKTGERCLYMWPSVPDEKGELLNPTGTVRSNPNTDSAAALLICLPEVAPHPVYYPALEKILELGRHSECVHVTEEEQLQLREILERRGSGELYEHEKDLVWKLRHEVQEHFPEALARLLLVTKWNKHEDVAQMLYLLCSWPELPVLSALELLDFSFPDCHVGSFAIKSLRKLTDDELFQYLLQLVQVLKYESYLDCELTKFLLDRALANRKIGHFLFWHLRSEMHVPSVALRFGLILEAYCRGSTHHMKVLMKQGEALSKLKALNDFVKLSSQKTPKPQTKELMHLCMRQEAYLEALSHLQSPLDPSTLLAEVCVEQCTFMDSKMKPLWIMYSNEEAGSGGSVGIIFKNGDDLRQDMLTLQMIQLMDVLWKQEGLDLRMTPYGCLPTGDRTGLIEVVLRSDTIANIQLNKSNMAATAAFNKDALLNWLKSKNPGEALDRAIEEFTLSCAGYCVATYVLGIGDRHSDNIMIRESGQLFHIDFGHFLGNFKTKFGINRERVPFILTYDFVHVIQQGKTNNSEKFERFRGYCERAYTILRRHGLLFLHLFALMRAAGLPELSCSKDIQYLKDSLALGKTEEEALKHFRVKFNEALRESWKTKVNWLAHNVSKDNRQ

Aurora kinase A = target: T2, Aurora kinase A (Homo sapiens, UniProt O14965); test: Inhibition of human Aurora kinase A (E122 to K401 residues) expressed in mammalian expression system by Z'LYTE assay
T2 sequence (O14965 whole entry): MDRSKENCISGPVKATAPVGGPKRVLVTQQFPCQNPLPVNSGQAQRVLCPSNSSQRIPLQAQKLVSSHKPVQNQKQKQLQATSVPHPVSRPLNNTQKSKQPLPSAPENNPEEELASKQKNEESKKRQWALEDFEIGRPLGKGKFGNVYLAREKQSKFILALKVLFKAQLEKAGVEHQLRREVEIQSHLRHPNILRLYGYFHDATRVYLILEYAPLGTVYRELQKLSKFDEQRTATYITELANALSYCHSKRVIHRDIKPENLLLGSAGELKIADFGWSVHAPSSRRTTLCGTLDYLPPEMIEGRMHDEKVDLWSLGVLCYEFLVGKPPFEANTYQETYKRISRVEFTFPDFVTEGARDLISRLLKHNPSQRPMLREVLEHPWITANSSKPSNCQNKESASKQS

Aurora kinase B = Aurora kinase B (Homo sapiens, UniProt Q96GD4); test: Inhibition of human Aurora kinase B (D25 to A303 residues) expressed in mammalian expression system by Z'LYTE assay
[3] = Antiproliferative activity against human MOLT4 cells after 3 days by CellTiter-Glo assay; assay type: functional, cell-based; settings: MOLT-4, 72 h
[4] = Antiproliferative activity against human Jurkat cells after 3 days by CellTiter-Glo assay; assay type: functional, cell-based; settings: 72 h
[5] = target: T3, Phosphatidylinositol 5-phosphate 4-kinase type-2 gamma (Homo sapiens) (UniProt Q8TBX8); test: Inhibition of human PIP5K2C (M1 to A421 residues) expressed at 1 uM
T3 sequence (whole entry): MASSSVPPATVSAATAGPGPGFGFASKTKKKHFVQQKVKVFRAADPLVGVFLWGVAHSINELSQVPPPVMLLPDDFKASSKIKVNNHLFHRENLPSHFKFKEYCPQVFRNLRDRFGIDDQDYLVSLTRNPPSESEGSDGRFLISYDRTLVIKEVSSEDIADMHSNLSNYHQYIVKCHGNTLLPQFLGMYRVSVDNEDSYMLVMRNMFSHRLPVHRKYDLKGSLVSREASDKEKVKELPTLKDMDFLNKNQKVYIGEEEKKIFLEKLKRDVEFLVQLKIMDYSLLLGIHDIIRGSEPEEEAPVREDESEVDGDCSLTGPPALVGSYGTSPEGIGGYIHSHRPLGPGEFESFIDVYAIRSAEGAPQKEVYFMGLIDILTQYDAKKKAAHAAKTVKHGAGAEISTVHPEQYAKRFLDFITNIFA

CLL = test: (§1) Antiproliferative activity against patient-derived IgM-stimulated CLL cells after 3 days by CellTiter-Glo assay; assay type: functional, cell-based; settings: Homo sapiens
[6] = as §1; assay type: functional, cell-based; settings: Homo sapiens, 72 h
[7] = Antiproliferative activity against human MOLM14 cells after 3 days by CellTiter-Glo assay; assay type: functional, cell-based; settings: MOLM-14, 72 h
[8] = Antiproliferative activity against human Loucy cells after 3 days by CellTiter-Glo assay; assay type: functional, cell-based; settings: 72 h
[9] = Antiproliferative activity against human MV4-11 cells after 3 days by CellTiter-Glo assay; assay type: functional, cell-based; settings: MV4-11, 72 h
[10] = target: Phosphatidylinositol 4,5-bisphosphate 3-kinase catalytic subunit beta isoform (Homo sapiens) (UniProt P42338); test: Inhibition of p110beta in HMEC assessed as reduction in Akt phosphorylation at Ser-473 residue at 0.01 to 1 uM after 1 hr by Western blot analysis
[11] = target: Phosphatidylinositol 4,5-bisphosphate 3-kinase catalytic subunit beta isoform (Homo sapiens) (UniProt P42338); test: Inhibition of p110beta in HMEC assessed as reduction in S6RP phosphorylation at Ser-235/236 residue at 0.01 to 1 uM after 1 hr by Western blot analysis
[12] = target: Phosphatidylinositol 4,5-bisphosphate 3-kinase catalytic subunit beta isoform (Homo sapiens) (UniProt P42338); test: Inhibition of p110beta in HMEC assessed as reduction in Akt phosphorylation at Thr-308 residue at 0.01 to 1 uM after 1 hr by Western blot analysis

Phosphatidylinositol 4,5-bisphosphate 3-kinase catalytic subunit gamma isoform, sequence (P48736 whole entry, the tested form may be a part, canonical isoform): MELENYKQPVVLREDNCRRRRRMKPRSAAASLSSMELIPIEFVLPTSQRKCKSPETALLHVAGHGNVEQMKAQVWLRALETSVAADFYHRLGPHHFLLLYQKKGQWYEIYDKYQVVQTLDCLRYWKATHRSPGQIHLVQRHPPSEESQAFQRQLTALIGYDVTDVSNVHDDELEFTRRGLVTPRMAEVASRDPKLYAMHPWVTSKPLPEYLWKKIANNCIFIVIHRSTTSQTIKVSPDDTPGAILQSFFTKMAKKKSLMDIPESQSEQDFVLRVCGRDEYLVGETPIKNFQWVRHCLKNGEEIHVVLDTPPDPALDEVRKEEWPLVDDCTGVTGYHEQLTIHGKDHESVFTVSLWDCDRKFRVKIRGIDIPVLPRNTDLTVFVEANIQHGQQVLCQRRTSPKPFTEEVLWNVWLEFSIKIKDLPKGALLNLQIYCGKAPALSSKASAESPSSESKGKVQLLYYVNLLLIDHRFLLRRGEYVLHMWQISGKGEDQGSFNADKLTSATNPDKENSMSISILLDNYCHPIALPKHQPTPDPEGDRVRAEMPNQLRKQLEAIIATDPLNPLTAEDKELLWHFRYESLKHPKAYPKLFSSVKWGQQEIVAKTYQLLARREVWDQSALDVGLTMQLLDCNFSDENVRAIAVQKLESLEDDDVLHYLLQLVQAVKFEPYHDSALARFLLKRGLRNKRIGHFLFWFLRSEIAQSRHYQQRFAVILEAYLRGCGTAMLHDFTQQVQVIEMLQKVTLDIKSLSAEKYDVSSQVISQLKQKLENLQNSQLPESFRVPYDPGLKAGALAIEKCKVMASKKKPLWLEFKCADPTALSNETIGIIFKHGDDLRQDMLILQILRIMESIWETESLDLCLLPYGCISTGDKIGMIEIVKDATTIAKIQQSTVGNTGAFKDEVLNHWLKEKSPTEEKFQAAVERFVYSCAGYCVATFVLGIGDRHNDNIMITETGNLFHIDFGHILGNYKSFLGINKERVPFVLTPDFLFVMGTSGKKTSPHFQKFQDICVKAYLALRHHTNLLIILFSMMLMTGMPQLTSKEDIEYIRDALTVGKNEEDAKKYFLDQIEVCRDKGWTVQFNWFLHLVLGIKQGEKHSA
Aurora kinase B, sequence (Q96GD4 whole entry, the tested form may be a part): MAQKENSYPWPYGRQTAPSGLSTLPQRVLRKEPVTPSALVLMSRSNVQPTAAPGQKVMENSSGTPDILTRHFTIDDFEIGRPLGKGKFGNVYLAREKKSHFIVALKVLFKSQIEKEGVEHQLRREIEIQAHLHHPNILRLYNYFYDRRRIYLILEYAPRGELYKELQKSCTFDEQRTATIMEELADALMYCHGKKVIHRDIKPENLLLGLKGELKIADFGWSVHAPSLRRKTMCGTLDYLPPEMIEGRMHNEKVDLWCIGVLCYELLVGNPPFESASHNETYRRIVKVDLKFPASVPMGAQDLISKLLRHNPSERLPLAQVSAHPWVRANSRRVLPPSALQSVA
Phosphatidylinositol 4,5-bisphosphate 3-kinase catalytic subunit beta isoform (Homo sapiens), sequence (P42338 whole entry, looked up, canonical isoform): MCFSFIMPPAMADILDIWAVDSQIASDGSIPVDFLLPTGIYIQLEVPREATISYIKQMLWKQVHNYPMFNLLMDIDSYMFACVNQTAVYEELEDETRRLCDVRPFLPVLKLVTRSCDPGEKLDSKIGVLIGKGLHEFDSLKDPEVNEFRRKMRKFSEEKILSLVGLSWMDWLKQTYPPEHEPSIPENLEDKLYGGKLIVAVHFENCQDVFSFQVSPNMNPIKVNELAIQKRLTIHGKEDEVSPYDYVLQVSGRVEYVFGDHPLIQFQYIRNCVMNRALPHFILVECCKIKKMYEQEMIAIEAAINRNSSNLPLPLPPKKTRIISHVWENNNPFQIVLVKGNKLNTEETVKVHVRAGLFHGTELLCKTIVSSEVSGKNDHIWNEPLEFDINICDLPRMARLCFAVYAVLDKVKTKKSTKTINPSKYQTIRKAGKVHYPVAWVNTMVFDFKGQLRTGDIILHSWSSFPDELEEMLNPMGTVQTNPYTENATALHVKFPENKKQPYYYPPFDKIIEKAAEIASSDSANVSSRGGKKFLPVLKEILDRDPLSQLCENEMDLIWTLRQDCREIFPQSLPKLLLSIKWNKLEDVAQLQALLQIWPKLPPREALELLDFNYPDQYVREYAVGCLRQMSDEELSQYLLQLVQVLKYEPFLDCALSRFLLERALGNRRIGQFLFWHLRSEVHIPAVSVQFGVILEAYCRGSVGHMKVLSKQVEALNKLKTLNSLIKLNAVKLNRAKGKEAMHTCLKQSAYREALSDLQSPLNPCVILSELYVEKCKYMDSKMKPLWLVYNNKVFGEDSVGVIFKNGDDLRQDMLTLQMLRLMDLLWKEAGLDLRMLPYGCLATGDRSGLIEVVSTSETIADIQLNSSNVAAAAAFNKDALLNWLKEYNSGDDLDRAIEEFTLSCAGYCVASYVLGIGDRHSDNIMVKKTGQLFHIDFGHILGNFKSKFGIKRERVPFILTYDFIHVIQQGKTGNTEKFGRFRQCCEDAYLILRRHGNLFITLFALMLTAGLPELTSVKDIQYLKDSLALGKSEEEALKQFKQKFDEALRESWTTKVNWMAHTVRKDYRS

| SMILES | IC50 [1] | IC50 [2] | further results |
| --- | --- | --- | --- |
| Cc1cc(S(N)(=O)=O)ccc1Nc1ncc2c(n1)N(C)c1ccccc1C(=O)N2C | 2400 nM | 820 nM | IC50 (Aurora kinase A): 4900 nM; IC50 (Aurora kinase B): 9400 nM |
| C=CC(=O)N1CCN(S(=O)(=O)c2cccc(Nc3ncc4c(n3)N(C)c3ccc(C)cc3C(=O)N4C)c2)CC1 | 2.8 nM | 1.5 nM | IC50 [3]: 33 nM; IC50 [4]: 166 nM; inhibition [5]: Active |
| CCC(=O)N1CCN(S(=O)(=O)c2cccc(Nc3ncc4c(n3)N(C)c3ccc(C)cc3C(=O)N4C)c2)CC1 | 11 nM | 1.7 nM | Activity (CLL): Dose-dependent effect; IC50 [6]: 3000 nM; IC50 [3]: 1200 nM; IC50 [7]: 610 nM; IC50 [4]: 1600 nM; IC50 [8]: 720 nM; IC50 [9]: 960 nM |
| CN1C(=O)c2ccccc2N(C)c2nc(Nc3ccc(S(N)(=O)=O)cc3)ncc21 | 15 nM | 49 nM | IC50 (Aurora kinase A): 4.8 nM; IC50 (Aurora kinase B): 13 nM |
| Cc1ccc2c(c1)C(=O)N(C)c1cnc(Nc3cccc(S(=O)(=O)N4CCC(O)CC4)c3)nc1N2C | 6.5 nM | 2.1 nM | IC50 [6]: > 10000 nM; IC50 [3]: 1300 nM; IC50 [7]: 1000 nM; IC50 [4]: 1400 nM; IC50 [8]: 350 nM; IC50 [9]: 620 nM |
| Cc1ccc2c(c1)C(=O)N(C)c1cnc(Nc3cccc(S(=O)(=O)N4CCN(C)CC4)c3)nc1N2C | 560 nM | 51 nM |  |
| CC[C@H](Nc1ncnc2[nH]cnc12)c1nc2cccc(F)c2c(=O)n1-c1ccccc1 [IDELALISIB] |  |  | IC50 [6]: > 10000 nM |
| C=CC(=O)NC1CCN(S(=O)(=O)c2ccc(Nc3ncc4c(n3)N(C)c3ccc(C)cc3C(=O)N4C)cc2)CC1 | 49 nM | 120 nM |  |
| C[C@H](Nc1ncnc2nc[nH]c12)c1cc2cccc(Cl)c2c(=O)n1-c1ccccc1 [DUVELISIB] |  |  | inhibition [10]: Active; IC50 [6]: > 10000 nM; IC50 [3]: 2300 nM; IC50 [7]: 1200 nM; inhibition [11]: Active; IC50 [4]: 1900 nM; inhibition [12]: Active; IC50 [8]: 980 nM; IC50 [9]: 4400 nM |
| C=CC(=O)N1CCN(S(=O)(=O)c2ccc(Nc3ncc4c(n3)N(C)c3ccc(C)cc3C(=O)N4C)cc2)CC1 | 110 nM | 230 nM |  |
| C=CC(=O)Nc1ccc(NS(=O)(=O)c2cccc(Nc3ncc4c(n3)N(C)c3ccc(C)cc3C(=O)N4C)c2)cc1 | 15 nM | 29 nM |  |
| Cc1ccc2c(c1)C(=O)N(C)c1cnc(Nc3cccc(S(N)(=O)=O)c3)nc1N2C | 110 nM | 76 nM |  |
| Cc1ccc2c(c1)C(=O)N(C)c1cnc(Nc3ccc(S(=O)(=O)N4CCC(O)CC4)cc3)nc1N2C | 58 nM | 41 nM |  |
| Cc1ccc2c(c1)C(=O)N(C)c1cnc(Nc3ccc(S(=O)(=O)N4CCN(C)CC4)cc3)nc1N2C | 3300 nM | 2600 nM |  |
| C=CC(=O)Nc1cccc(NS(=O)(=O)c2ccc(Nc3ncc4c(n3)N(C)c3ccc(C)cc3C(=O)N4C)cc2)c1 | 340 nM | 440 nM |  |
| CN1C(=O)c2ccccc2N(C)c2nc(Nc3cccc(S(N)(=O)=O)c3)ncc21 | 4.3 nM | 4.1 nM | IC50 (Aurora kinase A): 2.1 nM; IC50 (Aurora kinase B): 4.6 nM |
| Cc1ccc2c(c1)C(=O)N(C)c1cnc(Nc3ccc(S(N)(=O)=O)cc3)nc1N2C | 20 nM | 30 nM | IC50 (Aurora kinase A): 16 nM; IC50 (Aurora kinase B): 4.2 nM |
| C=CC(=O)Nc1cccc(NS(=O)(=O)c2cccc(Nc3ncc4c(n3)N(C)c3ccc(C)cc3C(=O)N4C)c2)c1 | 330 nM | 39 nM |  |
| C=CC(=O)Nc1ccc(NS(=O)(=O)c2ccc(Nc3ncc4c(n3)N(C)c3ccc(C)cc3C(=O)N4C)cc2)cc1 | 310 nM | 96 nM |  |
| C=CC(=O)NC1CCN(S(=O)(=O)c2cccc(Nc3ncc4c(n3)N(C)c3ccc(C)cc3C(=O)N4C)c2)CC1 | 120 nM | 20 nM | IC50 (Aurora kinase A): 350 nM |
